Measurements reported in patent US20250032444A1, “Prevention and treatment of depressive disorders and conditions promoted by protease containing plasma extracellular vesicles (PCpEV)” (Evexys Biotech Oy, priority 2021, published 2025).

Assays:
Choriod Plexus = assay: Accumulation of labeled EV in the choroid plexus after tail vein injection of 4MU-treated EV; format: in vivo; settings: 72 h after injection of 4MU-treated EV into tail veins of a mouse, n=4/condition; FIG. 3
Experimental: (A) Accumulation/absence of accumulation of labeled pEV (red) in the Choriod Plexus 72 h after injection of 4MU-treated EV into tail veins of a mouse (n=4/condition). (B) IHC of a hippocampal section and quantification of EVc pos. cells. Statistical significance by one-way ANOVA and Tukey's test, ***p<0.005.

[1] = cited from earlier work
Huh7 liver cells = assay: Uptake of HA, ADAM10/17, Hck and MMPs into EV from HAS-induced Huh7 liver cells (Western blot); format: cell-based
Experimental: (B): Hymecromone inhibits the uptake of HA into EV. […] Subsequently EV were purified from culture supernatant of Huh7 cells that were not treated for HAS induction (nil), from Huh7 cells that were treated for HAS induction (48 h; HAS-nd.) and from Huh7 cells that were treated for has induction and additionally incubated with Hymecromone (HAS-ind.+HyCr.). CD81 served as a loading control for pEV. Cell lysates from 293 T cells served as positive control for HA.
Subsequently EV were purified from culture supernatant of Huh7 cells that were not treated for HAS induction (nil), from Huh7 cells that were treated for HAS induction (48 h; HAS-ind.) and from Huh7 cells that were treated for HAS induction and additionally incubated with Hymecromone (HAS-nd.+HyCr.). Red arrows indicate the enzymatic active form of ADAM10 and ADAM17. CD81 served as a loading control for pEV. Cell lysates from 293 T cells served as positive control for HA.
In vitro a concentration of 300 μmol was sufficient to completely block the uploading of HA, Hck, and ADAM10 into vesicles. Whether these concentrations can be reached in circulation after oral uptake is not clear, as Hymecromone is efficiently metabolized in the […]. On the other hand PCpEV are generated by liver cells where Hymecromone is metabolized. […] Furthermore, there are likely inter-individual differences with respect to Hymecromone metabolization.
293Tcells were cultured in DMEM (Lonza), 10% (v/v) fetal bovine serum (FBS) with Penicillin-Strepto-mycin at 37° C., 5% CO2. For transient transfection, plasmids encoding the indicated proteins were transfected with Lipofectamine® LTX with Plus™ Reagent (Invitrogen) according to the manufacturer's instructions, or using the classical calcium phosphate procedure. Cells were used for experiments 24-72 h after transfection. Hymecromone was added at a final concentration of […] after transfection. For immunoblotting 20 μg of cellular protein lysate and 10 μg of EV lysate were loaded per lane. The latter corresponded to the production/secretion of 2-4 mio 293T cells within 48 h transfected and grown in one 10 cm dish.

three isotypes of HAS = settings: cited from earlier work
[2] = Treatment of patients with 4MU; format: in vivo; settings: 4×300 mg 4MU

Cc1cc(=O)oc2cc(O)ccc12 [Hymecromone, 4-methylumbelliferone]
EV upload and CP targeting (Choriod Plexus): blocks
serious side effects in clinical trials ([1]; at least 182 patients treated in clinical trials): no serious side effects
fraction of unchanged Hymecromone reaching systemic circulation ([1]; efficient metabolism by the liver): low
uptake of ADAM10 and 17 and Hck into EV (Huh7 liver cells; Huh7 cells treated for HAS induction (48 h) and incubated with Hymecromone, FIG. 2): inhibits
uptake of HA into EV (Huh7 liver cells; Huh7 cells treated for HAS induction (48 h) and incubated with Hymecromone, Western blot, FIG. 1B): inhibits
concentration sufficient to completely block the uploading of HA, Hck, and ADAM10 into vesicles (Huh7 liver cells; in vitro): 300 µmol
incorporation of LMW-HA, ADAM10/17, Hck, and MMPs into extracellular vesicles (Huh7 liver cells; pharmacological inhibition of HAS activity): efficiently blocked
inhibition of the three isotypes of HAS (three isotypes of HAS): efficiently inhibited
clinical outcome, Long COVID ([2]; 32 old patient): fully recovered
clinical outcome, Alzheimer's disease (AD)-associated depression ([2]; patient): improved significantly
